Laboratory results reported in the NIST ThermoML archive (doi:10.1007/s10765-005-5567-5).

Settings: Liquid; for thermal conductivity: Coaxial cylinder method; for viscosity: Capillary tube (Ostwald / Ubbelohde) method

O [water]
Settings	thermal conductivity [W/m/K]	viscosity [mPa·s]
298.3 K, 100 kPa	0.607	–
298.3 K, 10000 kPa	0.613	–
298.3 K, 30000 kPa	0.623	–
299.76 K, 100 kPa	–	0.8591
299.76 K, 10000 kPa	–	0.8561
299.76 K, 30000 kPa	–	0.8551
313.1 K, 100 kPa	0.629	–
313.1 K, 10000 kPa	0.634	–
313.1 K, 30000 kPa	0.644	–
315.62 K, 100 kPa	–	0.6245
315.62 K, 10000 kPa	–	0.6234
315.62 K, 30000 kPa	–	0.6292
328.37 K, 100 kPa	–	0.5
328.37 K, 10000 kPa	–	0.503
328.37 K, 30000 kPa	–	0.5071
333.3 K, 100 kPa	0.651	–
333.3 K, 10000 kPa	0.656	–
333.3 K, 30000 kPa	0.666	–
347.95 K, 100 kPa	–	0.3761
347.95 K, 10000 kPa	–	0.3803
347.95 K, 30000 kPa	–	0.3872
352.9 K, 100 kPa	0.667	–
352.9 K, 10000 kPa	0.672	–
352.9 K, 30000 kPa	0.682	–
363.4 K, 100 kPa	0.673	–
363.4 K, 10000 kPa	0.678	–
363.4 K, 30000 kPa	0.689	–
375.85 K, 10000 kPa	–	0.2772
375.85 K, 30000 kPa	–	0.2833
393.1 K, 10000 kPa	0.689	–
393.1 K, 30000 kPa	0.702	–
403.95 K, 10000 kPa	–	0.2131
403.95 K, 30000 kPa	–	0.2181
423.3 K, 10000 kPa	0.691	–
423.3 K, 30000 kPa	0.704	–
431.43 K, 10000 kPa	–	0.1738
431.43 K, 30000 kPa	–	0.1786
448.7 K, 10000 kPa	0.685	–
448.7 K, 30000 kPa	0.699	–
474.3 K, 10000 kPa	0.672	–
474.3 K, 30000 kPa	0.689	–
476.4 K, 10000 kPa	–	0.1326
476.4 K, 30000 kPa	–	0.1375
499.3 K, 10000 kPa	0.652	–
499.3 K, 30000 kPa	0.672	–
502.75 K, 10000 kPa	–	0.1189
502.75 K, 30000 kPa	–	0.1239
523.4 K, 10000 kPa	0.624	–
523.4 K, 30000 kPa	0.649	–
524.75 K, 10000 kPa	–	0.1081
524.75 K, 30000 kPa	–	0.1132
548.4 K, 10000 kPa	0.591	–
548.4 K, 30000 kPa	0.622	–
549.5 K, 10000 kPa	–	0.0961
549.5 K, 30000 kPa	–	0.1011
573.5 K, 10000 kPa	0.547	–
573.5 K, 30000 kPa	0.588	–
574.54 K, 10000 kPa	–	0.0851
574.54 K, 30000 kPa	–	0.0918
